According to patent US11999746B2, “Compounds” (GlaxoSmithKline Intellectual Property Development Limited, priority 2014, dated 2024):

Experiments:
Lp-PLA2 in human plasma = biological target: T1, Lp-PLA2 in human plasma (Homo sapiens, UniProt Q13093); assay: (3a) Lp-PLA2 human plasma Thio-PAF assay; type: biochemical; conditions: (3a) Thio-PAF assay, pooled human plasma; Examples 1-265 and 413-430 were tested here; read-out: pIC50 in the Lp-PLA2 human plasma assay (converted)
T1 construct: from tissue; host or cells: pooled human plasma
T1 sequence (Q13093 22-441): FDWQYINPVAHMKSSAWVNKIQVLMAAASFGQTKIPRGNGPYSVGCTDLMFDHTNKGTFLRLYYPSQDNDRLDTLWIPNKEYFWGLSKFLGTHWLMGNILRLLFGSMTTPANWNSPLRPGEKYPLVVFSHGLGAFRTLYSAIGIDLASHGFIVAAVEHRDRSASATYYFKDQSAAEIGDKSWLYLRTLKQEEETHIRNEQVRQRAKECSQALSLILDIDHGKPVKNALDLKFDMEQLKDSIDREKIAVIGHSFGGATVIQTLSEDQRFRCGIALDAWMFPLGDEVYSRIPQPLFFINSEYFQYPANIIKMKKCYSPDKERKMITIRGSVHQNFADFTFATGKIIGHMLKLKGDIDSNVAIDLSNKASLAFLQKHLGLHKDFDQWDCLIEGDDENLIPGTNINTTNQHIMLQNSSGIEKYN
Method in brief: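 Pooled human plasma preincubated 30 min with serially diluted compound, then given 2-thio-PAF substrate with CPM and NEM in 50 mM HEPES pH 7.4, 150 mM NaCl, 1 mM CHAPS. Reaction quenched with TFA after 2 min; CPM thiol-adduct fluorescence read at ex 380/em 485 after 40 min; pIC50 reported.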

[1] = biological target: T2, recombinant human Lp-PLA2 (Homo sapiens, UniProt Q13093); assay: (1a) PED6 assay, recombinant human Lp-PLA2 (rhLp-PLA2); type: biochemical; conditions: Examples 1-167 and 413-430 were tested here, one experiment or average of multiple experiments, read-out: rhLp-PLA2 (pIC50) (converted)
T2 sequence (Q13093 22-441): T1 sequence (Q13093 22-441)
Method in brief: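 PED6 (2 μM final after 1:1 addition of 4 μM stock) cleavage by rhLp-PLA2 (4 nM working solution) in 50 mM HEPES pH 7.4, 150 mM NaCl, 1 mM CHAPS; compounds preincubated with enzyme 30 minutes, reaction 20 min at room temperature. Fluorescence at ex 480/em 540; pIC50 from curve fit.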

| SMILES | IC50 (Lp-PLA2 in human plasma) [nM] | IC50 [1] [nM] |
| --- | --- | --- |
| O=c1nc(OCc2cc(F)c(Oc3ccnc(C(F)(F)F)c3)c(F)c2)cc2n1CC1COCCN21 (stereo not drawn) [Example E107, 7-((3,5-Difluoro-4-((2-(trifluoromethyl)pyridin-4-yl)oxy)benzyl)oxy)-3,4, 11, 11a-tetra hydropyrimido[6′,1′:2,3]imidazo[5,1-c][1,4]oxazin-9(1H)-one] | ≤ 100 | 0.0398 |
| Cn1cc(Oc2c(F)cc(COc3cc4n(c(=O)n3)CC3COCCN43)cc2F)cn1 (stereo not drawn) [Example E108, 7-((3,5-Difluoro-4-((1-methyl-1H-pyrazol-4-yl)oxy)benzyl)oxy)-3,4,11,11a-tetrahydro pyrimido[6′,1′:2,3]imidazo[5,1-c][1,4]oxazin-9(1H)-one] | ≤ 100 | ≤ 100 |
| CCn1cc(Oc2c(F)cc(COc3cc4n(c(=O)n3)CC3COCCN43)cc2F)cn1 (stereo not drawn) [Example E109, 7-((4-((1-Ethyl-1H-pyrazol-4-yl)oxy)-3,5-difluorobenzyl)oxy)-3,4,11,11a-tetrahydropyrimido[6′,1′:2,3]imidazo[5,1-c][1,4]oxazin-9(1H)-one] | ≤ 100 | 1.26 |
| O=c1nc(OCc2cc(F)c(Oc3cnc(C(F)(F)F)nc3)c(F)c2)cc2n1CC1COCCN21 (stereo not drawn) [Example E110, 7-((3,5-Difluoro-4-((2-(trifluoromethyl)pyrimidin-5-yl)oxy)benzyl)oxy)-3,4,11,11a-tetra hydropyrimido[6′,1′:2,3]imidazo[5,1-c][1,4]oxazin-9(1H)-one] | ≤ 100 | 0.501 |
| N#Cc1cc(COc2cc3n(c(=O)n2)CC2COCCN32)ccc1Oc1ccc(F)c(C(F)(F)F)c1 (stereo not drawn) [Example E111, 2-(4-Fluoro-3-(trifluoromethyl)phenoxy)-5-(((9-oxo-1,3,4,9,11,11a-hexahydropyrimido[6′,1′:2,3]imidazo[5,1-c][1,4]oxazin-7-yl)oxy)methyl)benzonitrile] | ≤ 100 | ≤ 1 |
| CCCn1cc(Oc2c(F)cc(COc3cc4n(c(=O)n3)C[C@H]3COCCN43)cc2F)cn1 [Example E112, (S)-7-((3,5-difluoro-4-((1-propyl-1H-pyrazol-4-yl)oxy)benzyl)oxy)-3,4,11,11atetrahydropyrimido[6′,1′:2,3]imidazo[5,1-c][1,4]oxazin-9(1H)-one] | ≤ 100 | ≤ 1 |
| O=c1nc(OCc2cc(F)c(Oc3ccnc(C(F)(F)F)c3)c(F)c2)cc2n1C[C@H]1COCCN21 [Example E113, (S)-7-((3,5-difluoro-4-((2-(trifluoromethyl)pyridin-4-yl)oxy)benzyl)oxy)-3,4, 11, 11a tetrahydropyrimido[6′,1′:2,3]imidazo[5,1-c][1,4]oxazin-9(1H)-one] | ≤ 100 | 0.0316 |
| Cn1cc(Oc2c(F)cc(COc3cc4n(c(=O)n3)C[C@H]3COCCN43)cc2F)cn1 [Example E114, (S)-7-((3,5-difluoro-4-((1-methyl-1H-pyrazol-4-yl)oxy)benzyl)oxy)-3,4,11,11a-tetrahydropyrimido[6′,1′:2,3]imidazo[5,1-c][1,4]oxazin-9(1H)-one] | ≤ 100 | ≤ 100 |
| CCn1cc(Oc2c(F)cc(COc3cc4n(c(=O)n3)C[C@H]3COCCN43)cc2F)cn1 [Example E115, (S)-7-((4-((1-ethyl-1H-pyrazol-4-yl)oxy)-3,5-difluorobenzyl)oxy)-3,4,11,11a-tetrahydropyrimido[6′,1′:2,3]imidazo[5,1-c][1,4]oxazin-9(1H)-one] | ≤ 100 | 1 |
| O=c1nc(OCc2cc(F)c(F)c(F)c2)cc2n1C[C@H]1COCCN21 [Example E116, (S)-7-((3,4,5-trifluorobenzyl)oxy)-3,4,11,11atetrahydropyrimido[6′,1′:2,3]imidazo[5,1-c][1,4] oxazin-9(1H)-one] | ≤ 100 | ≤ 100 |
| Cc1cc(Oc2c(F)cc(COc3cc4n(c(=O)n3)C[C@@H]3COCCN43)cc2F)ccn1 [Example E117, (R)-7-((3,5-difluoro-4-((2-methylpyridin-4-yl)oxy)benzyl)oxy)-3,4,11,11atetrahydropyrimido[6′,1′:2,3]imidazo[5,1-c][1,4]oxazin-9(1H)-one] | ≤ 100 | ≤ 100 |
| Cc1ccc(Oc2c(F)cc(COc3cc4n(c(=O)n3)C[C@@H]3COCCN43)cc2F)cn1 [Example E118, (R)-7-((3,5-difluoro-4-((6-methylpyridin-3-yl)oxy)benzyl)oxy)-3,4,11,11atetrahydropyrimido[6′,1′:2,3]imidazo[5,1-c][1,4]oxazin-9(1H)-one] | ≤ 100 | ≤ 1 |
| O=c1nc(OCc2cc(F)c(Oc3ccnc(C(F)(F)F)c3)c(F)c2)cc2n1C[C@@H]1COCCN21 [Example E119, (R)-7-((3,5-difluoro-4-((2-(trifluoromethyl)pyridin-4-yl)oxy)benzyl)oxy)-3,4, 11, 11a-tetra hydropyrimido[6′,1′:2,3]imidazo[5,1-c][1,4]oxazin-9(1H)-one] | ≤ 100 | ≤ 1 |
| Cn1cc(Oc2c(F)cc(COc3cc4n(c(=O)n3)C[C@@H]3COCCN43)cc2F)cn1 [Example E120, (R)-7-((3,5-difluoro-4-((1-methyl-1H-pyrazol-4-yl)oxy)benzyl)oxy)-3,4,11,11a-tetrahydropyrimido[6′,1′:2,3]imidazo[5,1-c][1,4]oxazin-9(1H)-one] | ≤ 10000 | ≤ 100 |
| CCn1cc(Oc2c(F)cc(COc3cc4n(c(=O)n3)C[C@@H]3COCCN43)cc2F)cn1 [Example E121, (R)-7-((4-((1-ethyl-1H-pyrazol-4-yl)oxy)-3,5-difluorobenzyl)oxy)-3,4,11,11a-tetrahydropyrimido[6′,1′:2,3]imidazo[5,1-c][1,4]oxazin-9(1H)-one] | ≤ 10000 | ≤ 100 |
| CCCn1cc(Oc2c(F)cc(COc3cc4n(c(=O)n3)C[C@@H]3COCCN43)cc2F)cn1 [Example E122, (R)-7-((3,5-difluoro-4-((1-propyl-1H-pyrazol-4-yl)oxy)benzyl)oxy)-3,4,11,11atetrahydropyrimido[6′,1′:2,3]imidazo[5,1-c][1,4]oxazin-9(1H)-one] | ≤ 10000 | ≤ 100 |
| O=c1nc(OCc2cc(F)c(F)c(F)c2)cc2n1C[C@@H]1COCCN21 [Example E123, (R)-7-((3,4,5-trifluorobenzyl)oxy)-3,4,11,11atetrahydropyrimido[6′,1′:2,3]imidazo[5,1-c][1,4] oxazin-9(1H)-one] | ≤ 10000 | ≤ 100 |
| Cc1cc(Oc2c(F)cc(COc3cc4n(c(=O)n3)C[C@H]3COCCN43)cc2F)ccn1 [Example E124, (S)-7-((3,5-difluoro-4-((2-methylpyridin-4-yl)oxy)benzyl)oxy)-3,4,11,11atetrahydropyrimido[6′,1′:2,3]imidazo[5,1-c][1,4]oxazin-9(1H)-one] | ≤ 100 | 0.501 |
| Cc1ccc(Oc2c(F)cc(COc3cc4n(c(=O)n3)C[C@H]3COCCN43)cc2F)cn1 [Example E125, (S)-7-((3,5-difluoro-4-((6-methylpyridin-3-yl)oxy)benzyl)oxy)-3,4,11,11atetrahydropyrimido[6′,1′:2,3]imidazo[5,1-c][1,4]oxazin-9(1H)-one] | ≤ 100 | 0.0631 |
| O=c1nc(OCc2ccc(F)cc2F)cc2n1C[C@H]1COCCN21 [Example E126, (S)-7-((2,4-difluorobenzyl)oxy)-3,4,11,11a-tetrahydropyrimido[6′,1′:2,3]imidazo[5,1-c][1,4] oxazin-9(1H)-one] | ≤ 10000 | ≤ 100 |
| O=c1nc(OCc2cccc(F)c2F)cc2n1C[C@H]1COCCN21 [Example E127, (S)-7-((2,3-difluorobenzyl)oxy)-3,4,11,11a-tetrahydropyrimido[6′,1′:2,3]imidazo[5,1-c][1,4] oxazin-9(1H)-one] | ≤ 100 | ≤ 100 |
| O=c1nc(OCc2cccc(F)c2)cc2n1C[C@H]1COCCN21 [Example E128, (S)-7-((3-fluorobenzyl)oxy)-3,4,11,11a-tetrahydropyrimido[6′,1′:2,3]imidazo[5,1-c][1,4] oxazin-9(1H)-one] | ≤ 100 | 10 |
| O=c1nc(OCc2cc(F)cc(F)c2)cc2n1C[C@H]1COCCN21 [Example E129, (S)-7-((3,5-difluorobenzyl)oxy)-3,4,11,11a-tetrahydropyrimido[6′,1′:2,3]imidazo[5,1-c][1,4] oxazin-9(1H)-one] | ≤ 100 | ≤ 100 |
| O=c1nc(OCc2ccc(F)cc2F)cc2n1C[C@@H]1COCCN21 [Example E130, (R)-7-((2,4-difluorobenzyl)oxy)-3,4,11,11a-tetrahydropyrimido[6′,1′:2,3]imidazo[5,1-c][1,4] oxazin-9(1H)-one] | ≤ 10000 | ≤ 100 |
